Measurements published in patent publication US7906477B2 (Genspera, Inc., priority 2002, dated 2011).
Square brackets hold non-standard residues; d marks the D form. Ends that are not written are not given here. Peptide text beside a SMILES is read from it. * marks the point of attachment. X1 = C/C=C(/C)C(=O)O[C@H]1C(C)=C2[C@H]([C@@H]1OC(=O)CCCCCCC)[C@@](C)(OC(C)=O)C[C@H](OC(=O)CCCCCCCCCCCN*)[C@@]1(O)[C@H]2OC(=O)[C@@]1(C)O; Tyr(3-NO2) = N[C@@H](Cc1ccc(O)c([N+](=O)[O-])c1)C(=O)O; AMC = Cc1cc(=O)oc2cc(N*)ccc12; Abz = aminobenzoic acid; Dap = NC[C@H](N)C(=O)O

Experiments:
[1] = test system: human prostate cancer cells; conditions: human prostate cancer cells in vitro; cited from earlier work
Balb-C mice = experiment: in vivo toxicity, single and repeated intravenous injection; parameters: species or system mouse
Description: To determine in vivo toxicity of ac-GKAFRR-L12ADT (SEQ ID NO:41), Balb-C mice (Harlan) received a single intravenous injection of an increasing dose of prodrug. Mice were monitored for toxicity hourly for twelve hours and then daily×one week. Separate groups of three mice each received increasing doses of ac-GKAFRRL12ADT (SEQ ID NO:41). […] All animals receiving doses less than LD100 were alive and well up to 1 week after receiving a single dose. All procedures were performed according to protocols approved by the Johns Hopkins Animal Care and Use Committee.
Balb-C mice were treated in groups of 3with a single intravenous injection of increasing doses of the ac-GKAFRR-L12ADT (SEQ ID NO:41) prodrug to establish the dose that killed 100% of mice (i.e. LD100). […] All mice, however, tolerated a single intravenous dose of 3.67 μmoles/kg and this dose was then used for further dosing and pharmacokinetic studies.

[2] = pharmacokinetics after single intravenous dose, plasma levels by LC/MS/MS; format: in vivo, mouse; conditions: Balb-C mice, single intravenous dose 3.67 μmoles/kg
Description: FIG. 9 depicts pharamacokinetic analysis of GKAFRR-L12ADT (SEQ ID NO:44) following single intravenous injection of 3.67 μmole/kg. Mice were treated in groups of 3 and then sacrificed at indicated time points. Data represent average±standard error of plasma concentrations as determined by LC-MS analysis.
Calibration standards consisted of ac-GKAFRR-L12ADT prodrug, RL12ADT or L12ADT spiked into mouse plasma and plasma samples from treated mice were analyzed by liquid chromatography coupled to a quadrupolequadripole mass spectrometer (LC/MS/MS) [PESciex API 3000]. A multistep gradient elution HPLC method was used to separate the ac-GKAFRR-L12ADT prodrug from the free RL12ADT and L12ADT with eluent A=2 mM ammonium acetate with 0.1% formic acid 1% acetic acid in deionized water and eluent B=90% acetonitrile/1% acetic acid/[…]. Samples were eluted through a Zorbax SB-C18 Rapid Resolution column (2/1×30 mm, 3.5 μm) at a flow rate of 0.3 ml/min and gradient of 100% A to 100% B over 12 minutes. Calibration was done using extracted standards of ac-GKAFRR-L12ADT added to and then extracted from mouse plasma in a range of 0.001-10 μM, and linear regression analysis was used to generate best-fit lines, from which peak areas of samples were converted to concentration of prodrug. Peak areas of RL12ADT and L12ADT were below limit of detection at all time points and, therefore, calibration was not performed. Single-dose pharmacokinetics were assessed by noncompartmental analysis (Gibaldi, M. and Perroer, D. Pharmacokinetics, 2nd edition, p. 407-409. New York, 1982) The area under the curve from time zero to infinity (AUC0-∞) was calculated with the linear trapezoidal method (Gibaldi, M. and Perroer, D. Pharmacokinetics, 2nd edition, p. 407-409. New York, 1982)). The terminal half-life (T1/2) was determined from the terminal slope (ke) on a log-linear plot of concentration versus time.
To determine pharmacokinetic parameters for the hK2-activated thapsigargin prodrug, Balb-C mice (n=3/timepoint) were treated with a single intravenous dose of 3.67 μmoles/kg of the ac-GKAFRR-L12ADT (SEQ ID NO:41) prodrug. At various time points (5, 10, 30 minutes and 1, 1.5, 2, 3, 4, 6, 12, 24 hrs) mice were sacrificed after blood was obtained by cardiac puncture. After precipitating serum proteins with acetonitrile, supernatants were evaluated by LC-MS to determine concentrations of ac-GKAFRR-L12ADT (SEQ ID NO:41), R-L12ADT and L12ADT at each time points. Areas under the curve were converted to concentrations based on a standard curve that was linear for concentrations ranging from 1 nM to 10,000 nM. […] Both RL12ADT and L12ADT were below the lower limit of detection (i.e. <1 nM) for all time points, FIG. 6.

[3] = plasma stability in 50% human plasma; format: in vitro ADME; conditions: 50% fresh heparinized plasma, 24 hours, room temperature, HPLC and MALDI-TOF
Description: FIG. 5 depicts the stability of Ac-GKAFRR-L12ADT (SEQ ID NO:41) in human plasma after a 24 hour incubation, as determined by HPLC analysis. Ac-GKAFRR-L12ADT (SEQ ID NO:41) was incubated in 50% human plasma for 24 hours at room temperature. Peak 1 represents an unidentified plasma contaminant that was also present in control plasma. Peaks 2 and 3 both represent Ac-GKAFRR-L12ADT (SEQ ID NO:41) as confirmed by MALDI-TOF mass spectrometric analysis.
Mouse plasma was obtained from cardiac puncture of anesthetized mice prior to euthanization by CO2 overdose according to protocols approved by the Johns Hopkins Animal Care and Use Committee. Human plasma was obtained from discarded, pooled, and unlabeled clinical samples. Plasma was diluted to 50% in Tris buffer (50 mM Tris-HCl, 100 mM NaCl, pH 7.8). To this, test peptides/prodrugs were added to 250 or 500 μM final concentration. After the incubation period, one volume (200 μl) of acetonitrile was added to precipitate the protein fraction and the tube was centrifuged at 14,000 for 2 min. The supernatant was analyzed by C18-HPLC and the collected peaks were analyzed by MALDI-TOF as described above.
Arginine-containing peptides are potential substrates for the wide variety of other trypsin-like proteases that are present in the blood and may have residual activity in the blood. The plasma stability of an hK2 peptide substrate may therefore be limited and this would have significant consequences related to the development of an hK2 activated prodrug. Therefore, two fluorescence quenched hK2 peptide substrates peptides were incubated in 50% mouse or human plasma (diluted in PBS buffer) to determine stability using a plate-reader. As observed with arginine containing peptides from the SPOT analysis above, none of the arginine-containing, fluorescence quenched hK2peptide substrates were stable in human or mouse plasma. Fluorescence-quenched Y′GKAFRR-Dap-GK′ (SEQ ID NO:42) and Y′GKAFRRLGK′ (SEQ ID NO:21) (500 μM each) were hydrolyzed when incubated in 50% mouse or human plasma (FIG. 7). Mouse plasma degraded the peptides faster than human plasma (FIG. 7). […] In human plasma, more peptide remained after 3 hours (˜25%). […] The proteolytic activity from plasma was never affected by repeated freeze-thaw cycles or by storage of the mouse plasma alone at room temperature for several days.
To determine the plasma stability for the hK2 prodrug, the prodrug was incubated in 50% fresh heparinized (1%) plasma for 24 hours at room temperature, precipitated the proteins by adding one volume of 1% TFA in acetonitrile and analyzed the supernatant by HPLC. Unexpectedly, BPLC analysis after 24 hrs incubation in plasma yielded only a single peak corresponding to the hK2 prodrug (FIG. 5). MALDI-TOF MS of the isolated single peak confirmed the stability of the molecule.

Cathepsin D = experiment: Cathepsin D, 1 μg/ml
Cathepsin B = experiment: Cathepsin B, 1 μg/ml
Urokinase = experiment: Urokinase, 1 μg/ml
hK2 [4] = experiment: hK2 (4 μg/ml) in 50 mM Tris, 0.1 M NaCl, pH 7.8; conditions: human, room temperature, up to 24 hours
Plasmin = experiment: Plasmin, 1 μg/ml
[5] = 50% fresh heparinized (1%) plasma; 50% human plasma; conditions: room temperature, up to 24 hours
hK2 [6] = molecular target: T1, hK2 (Homo sapiens, UniProt P20151); conditions: previously reported; cited from earlier work
T1 construct: made in house

hK2 [7] = molecular target: T1, hK2; experiment: on-bead digestion of PEGA-bound fluorescence-quenched peptides by hK2; format: biochemical; conditions: 4 μg/ml hK2, PEGA resin
Description: For screening, approximately 1 ml of resin (˜65,000 beads) was first suspended in methanol in a Petri dish and examined under transilluminant UV light (302 nm) to detect any falsely positive fluorescent beads prior to addition of protease. After removal of ˜40-50 beads, the resin was washed with water and finally suspended in 10 ml buffer in a glass Petri dish. After a final screen for false-positives, hK2 was added from a frozen stock solution to make 4 μg/ml final. Fluorescent beads were selected and removed with a micropipette, washed with 1 M NaCl, water, DMF, MeOH, water and stored in MeOH at −20° C.
Additionally, Walle and co-workers (Thorpe, D. S. and Walle, S. (2000) Biochem. Biophys. Res. Commun. 269:591-595) published data from a small combinatorial library to find linkers for the optimal display of peptide ligands to various protein targets. They reported that the insertion of a dipeptide consisting of a cationic residue together with a hydrophobic residue presents a general method for optimizing peptide display on solid phase beads. […] The test peptide Y′GKAFRL-Dap-F-K′-PEGA (SEQ ID NO:53) was synthesized and observed that the time required to generate clearly detectable fluorescence on the beads was reduced to 4-5 hours compared to 10-12 hours for the same peptide sequence lacking the Dap-F linker. […]

hK2 [8] = experiment: 8 μg/ml hK2 in PBS buffer; conditions: human
hK2 [9] = experiment: hK2, fluorescence-quenched peptides tested in solution; conditions: human, up to prolonged incubation
[10] = five consecutive daily intravenous injections of 3.67 μmoles/kg

T1 sequence (P20151 25-261): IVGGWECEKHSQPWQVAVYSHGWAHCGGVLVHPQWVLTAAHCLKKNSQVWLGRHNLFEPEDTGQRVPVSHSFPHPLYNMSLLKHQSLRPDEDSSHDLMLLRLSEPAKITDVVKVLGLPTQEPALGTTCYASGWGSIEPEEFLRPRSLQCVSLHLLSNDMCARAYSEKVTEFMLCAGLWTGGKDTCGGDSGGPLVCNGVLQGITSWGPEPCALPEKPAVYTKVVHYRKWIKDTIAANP

With `CC=C(C)C(=O)OC1C(C)=C2C(C1OC(=O)CCCCCCC)C(C)(OC(C)=O)CC(OC(=O)CCCCCCCCCCCNC(=O)C(N)CC(C)C)C1(O)C2OC(=O)C1(C)O` [L12ADT, 8-O-(12-[L-leucinoylamino]dodecanoyl)-8-O-debutanoylthapsigargin] as the compound, how does the LD50 [1] read?
The LD50 was about 30 nM.

Which results are given for `C/C=C(/C)C(=O)O[C@H]1C(C)=C2[C@H]([C@@H]1OC(=O)CCCCCCC)[C@@](C)(OC(C)=O)C[C@H](OC(=O)CCCCCCCCCCCNC(=O)[C@H](CC(C)C)NC(=O)[C@H](CCCNC(=N)N)NC(=O)[C@H](CCCNC(=N)N)NC(=O)[C@H](Cc1ccccc1)NC(=O)[C@H](C)NC(=O)[C@H](CCCCN)NC(=O)CNC(C)=O)[C@@]1(O)[C@H]2OC(=O)[C@@]1(C)O` [ac-GKAFRR-L12ADT] (Ac-GKAFRRL-X1)?
single intravenous dose tolerated by all mice (Balb-C mice; Balb-C mice, single intravenous dose): 3.67 µmol/kg; toxicity of repeated dosing (in words) (Balb-C mice; [10]): without any deaths or observable toxicity; weight loss over baseline (Balb-C mice; [10]): < 15%; stability in the serum in vivo (in words) [2]: highly stable to hydrolysis in the serum in vivo; half-life ([2]; mouse, plasma): 40.7 ± 1.2 min; AUC(0-inf) ([2]; mouse, plasma, read-out: area under the curve (converted)): 40.7 µM·h; Cmax ([2]; mouse, plasma): 36.8 ± 7.2 µM; plasma stability of the prodrug (in words) [3]: No degradation products could be identified

For Abz-GKAFRRLY′, which not cleaved (Cathepsin D) is on record?
The not cleaved was “No appreciable hydrolysis; relative rate 1 (approximately 0.1% digestion in 1 hour)”.

What about the not cleaved (Cathepsin B) of the same compound?
Its not cleaved is “No appreciable hydrolysis; relative rate 1 (approximately 0.1% digestion in 1 hour)”.

Which results are given for Ac-GKAFRR-L12ADT?
not cleaved (Urokinase): no activity on the prodrug; relative rate 1 (approximately 0.1% digestion in 1 hour); not cleaved (Cathepsin D): No appreciable hydrolysis; relative rate 1 (approximately 0.1% digestion in 1 hour); cleaved bond (hK2 [4]): Arg-Leu; cleaved bond (Plasmin): arginine-arginine; not cleaved [5]: only a single peak corresponding to the hK2 prodrug after 24 hrs; no degradation products; not cleaved (Cathepsin B): No appreciable hydrolysis; relative rate 1 (approximately 0.1% digestion in 1 hour)

What does the source list for Pro-Phe-Arg-{AMC}?
Km (hK2 [6]): 40 µM; kcat (hK2 [6]): 0.92 s⁻¹

For “Y′GKAFRL-Dap-F-K′-PEGA: test peptide on PEGA resin with Dap-F linker ([Tyr(3-NO2)]GKAFRL[Dap]FK(Abz)-{PEGA resin})”, which “incubation time to yield clearly detectable fluorescent beads” value (hK2 [7]) is on record?
Its value is 4 to 5 h.

Which “incubation time to yield clearly detectable fluorescent beads” value (hK2 [7]) does the source give for “Y′GKAFRLK′-PEGA: test hK2 peptide substrate on PEGA resin ([Tyr(3-NO2)]GKAFRLK(Abz)-{PEGA resin})” here?
The value was 10 to 12 h.

With Y′GSKGHFKL-Dap-F-K′ as the compound, how does the not cleaved (hK2 [8]) read?
The not cleaved was “did not show any hydrolysis”.

With Y′GSKGHFKL-Dap-K′ as the compound, how does the not cleaved (hK2 [9]) read?
Its not cleaved is “not digested by hK2, even after prolonged incubation”.

For Y′GSKGPFKL-Dap-K′, which not cleaved (hK2 [9]) is on record?
The not cleaved was “not digested by hK2, even after prolonged incubation”.
